Results from patent publication US9499550B2 (BRISTOL-MYERS SQUIBB COMPANY, priority 2012, dated 2016).
Where two headings read alike, the source gives them in different places.

How the values were obtained:
[1] = test system: HCV genotype 1b (Con1) replicon in HUH-7 cells; test: HCV replicon luciferase reporter assay, genotype 1b; type: cell-based; details: Hepatitis C virus, Huh-7, 72 h, 3 days incubation, read-out: LE_1b (EC50, range)
Method in brief: (§1)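 Replicon inhibition for both genotypes was measured as Renilla luciferase signal (EnduRen, 7.5 μM final, 2 h) after 3-day, 37° C exposure of replicon-bearing HUH-7 cells in 4% FCS DMEM, 0.5% DMSO. The 1b construct carries S1179I; the 1a H77 construct carries P1496L and S2204I. Twenty-point, 3-fold dilutions were fitted four-parametrically for EC50, and CC50 was taken from multiplexed Cell Titer-Blue.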

[2] = test system: HCV genotype 1a (H77 strain) replicon in HUH-7 cells; test: HCV replicon luciferase reporter assay, genotype 1a; type: cell-based; details: Hepatitis C virus, Huh-7, 72 h, 3 days incubation, read-out: LE_1a (EC50, range)
Method in brief: as §1

[3] = HCV genotype 1b replicon luciferase assay, range class
[4] = HCV genotype 1a replicon luciferase assay, range class
[5] = GETYPE1B, HCV genotype 1b replicon luciferase
[6] = GETYPE1A, HCV genotype 1a replicon luciferase
[7] = HCV genotype 1b replicon luciferase
[8] = HCV genotype 1a replicon luciferase

Row | Structure (SMILES) | EC50 [1, 3] [nM] | EC50 [2, 4] [nM] | further results
1 | COc1cc(F)cc2c(O[C@@H]3C[C@H]4C(=O)N[C@]5(C(=O)NS(=O)(=O)C6CC6)C[C@H]5/C=C\CC[C@@H](C)C[C@@H](C)[C@H](NC(=O)O[C@@H]5C[C@@H]6C[C@@H]6C5)C(=O)N4C3)nccc12 [Compound 3168, (1R,3r,5S)-bicyclo[3.1.0]hexan-3-yl((2R,6S,7R,9R,13aS,14aR,16aS,Z)-14a-((cyclopropylsulfonyl)carbamoyl)-2-((7-fluoro-5-methoxyisoquinolin-1-yl)oxy)-7,9-dimethyl-5,16-dioxo-1,2,3,5,6,7,8,9,10,11,13a,14,14a,15,16,16a-hexadecahydrocyclopropa[e]pyrrolo[1,2-a][1,4]diazacyclopentadecin-6-yl)carbamate] | < 5.46 | < 5.46 | –
2 | CCOc1cnc(O[C@@H]2C[C@H]3C(=O)N[C@]4(C(=O)NS(=O)(=O)C5CC5)C[C@H]4/C=C\CC[C@@H](C)C[C@@H](C)[C@H](NC(=O)OC(C)(C)C)C(=O)N3C2)c2ccccc12 [Compound 16, tert-butyl ((2R,6S,7R,9R,13aS,14aR,16aS,Z)-14a-((cyclopropylsulfonyl)carbamoyl)-2-((4-ethoxyisoquinolin-1-yl)oxy)-7,9-dimethyl-5,16-dioxo-1,2,3,5,6,7,8,9,10,11,13a,14,14a,15,16,16a-hexadecahydrocyclopropa[e]pyrrolo[1,2-a][1,4]diazacyclopentadecin-6-yl)carbamate] | < 5.46 | < 5.46 | –
3 | CC[C@@H]1C[C@H](C)CC/C=C\[C@@H]2C[C@@]2(C(=O)NS(=O)(=O)C2(CF)CC2)NC(=O)[C@@H]2C[C@@H](Oc3nccc4cc(OC)c(F)cc34)CN2C(=O)[C@H]1NC(=O)OC(C)(C)C(F)(F)F [Compound 4193] | – | – | EC50 [1, 5]: < 5.46 nM; EC50 [2, 6]: < 5.46 nM
4 | CCOc1cc2ccnc(O[C@@H]3C[C@H]4C(=O)N[C@]5(C(=O)NS(=O)(=O)C6(CF)CC6)C[C@H]5/C=C\CC[C@@H](C)C[C@@H](C)[C@H](NC(=O)OC(C)(C)C(C)(F)F)C(=O)N4C3)c2cc1F [Compound 5415, 3,3-difluoro-2-methylbutan-2-yl((2R,6S,7R,9R,13aS,14aR,16aS,Z)-2-((6-ethoxy-7-fluoroisoquinolin-1-yl)oxy)-14a-(((1-(fluoromethyl)cyclopropyl)sulfonyl)carbamoyl)-7,9-dimethyl-5,16-dioxo-1,2,3,5,6,7,8,9,10,11,13a,14,14a,15,16,16a-hexadecahydrocyclopropa[e]pyrrolo[1,2-a][1,4]diazacyclopentadecin-6-yl)carbamate] | – | – | EC50 [1, 7]: 0.51 to 1 nM; EC50 [2, 8]: 1.01 to 5 nM
5 | CC[C@@H]1C[C@H](C)CC/C=C\[C@@H]2C[C@@]2(C(=O)NS(=O)(=O)C2(CF)CC2)NC(=O)[C@@H]2C[C@@H](Oc3nc(OC)cc4cc(OC)ccc34)CN2C(=O)[C@H]1NC(=O)OC(C)(C)C(F)(F)F [Compound 1193] | – | – | EC50 [1, 5]: 0.51 to 1 nM; EC50 [2, 6]: 1.01 to 5 nM
6 | COCCOc1cnc(O[C@@H]2C[C@H]3C(=O)N[C@]4(C(=O)NS(=O)(=O)C5(C)CC5)C[C@H]4/C=C\CC[C@@H](C)C[C@@H](C)[C@H](NC(=O)OC4C[C@@H]5C[C@H]5C4)C(=O)N3C2)c2ccccc12 [Compound 1039, (1S,5S)-bicyclo[3.1.0]hexan-3-yl((2R,6S,7R,9R,13aS,14aR,16aS,Z)-2-((4-(2-methoxyethoxyl)isoquinolin-1-yl)oxy)-7,9-dimethyl-14a-(((1-methylcyclopropyl)sulfonyl)carbamoyl)-5,16-dioxo-1,2,3,5,6,7,8,9,10,11,13a,14,14a,15,16,16a-hexadecahydrocyclopropa[e]pyrrolo[1,2-a][1,4]diazacyclopentadecin-6-yl)carbamate] | < 5.46 | < 5.46 | –
7 | [2H]C([2H])([2H])C(C)(OC(=O)N[C@@H]1C(=O)N2C[C@H](Oc3nnc(OC)c4ccccc34)C[C@H]2C(=O)N[C@]2(C(=O)NS(=O)(=O)C3(C)CC3)C[C@H]2/C=C\CC[C@H](C)C[C@H]1CC)C([2H])([2H])[2H] [Compound 5021] | – | – | EC50 [1, 7]: < 5.46 nM; EC50 [2, 8]: 4.82 to 103 nM
8 | COc1cnc(O[C@@H]2C[C@H]3C(=O)N[C@]4(C(=O)NS(=O)(=O)C5(CF)CC5)C[C@H]4/C=C\CC[C@H](C)C[C@@H](C)[C@H](NC(=O)OC4(C)CCCOC4)C(=O)N3C2)c2ccccc12 (stereo partly drawn) [Compound 1055, 3-methyltetrahydro-2H-pyran-3-yl((2R,6S,7R,9S,13aS,14aR,16aS,Z)-14a-(((1-(fluoromethyl)cyclopropyl)sulfonyl)carbamoyl)-2-((4-methoxyisoquinolin-1-yl)oxy)-7,9-dimethyl-5,16-dioxo-1,2,3,5,6,7,8,9,10,11,13a,14,14a,15,16,16a-hexadecahydrocyclopropa[e]pyrrolo[1,2-a][1,4]diazacyclopentadecin-6-yl)carbamate] | < 5.46 | < 5.46 | –
9 | COCCOc1cnc(O[C@@H]2C[C@H]3C(=O)N[C@]4(C(=O)NS(=O)(=O)C5CC5)C[C@H]4/C=C\CC[C@@H](C)C[C@@H](C)[C@H](NC(=O)OC(C)(C)C(C)(F)F)C(=O)N3C2)c2ccc(OC)cc12 [Compound 1151, 3,3-difluoro-2-methylbutan-2-yl((2R,6S,7R,9R,13aS,14aR,16aS,Z)-14a-((cyclopropylsulfonyl)carbamoyl)-2-((6-methoxy-4-(2-methoxyethoxyl)isoquinolin-1-yl)oxy)-7,9-dimethyl-5,16-dioxo-1,2,3,5,6,7,8,9,10,11,13a,14,14a,15,16,16a-hexadecahydrocyclopropa[e]pyrrolo[1,2-a][1,4]diazacyclopentadecin-6-yl)carbamate] | < 5.46 | < 5.46 | –
10 | CC[C@@H]1C[C@H](C)CC/C=C\[C@@H]2C[C@@]2(C(=O)NS(=O)(=O)C2CC2)NC(=O)[C@@H]2C[C@@H](Oc3nc4cc(OC)ccc4nc3Cl)CN2C(=O)[C@H]1NC(=O)OC(C)(C)C(F)(F)F [Compound 4271] | – | – | EC50 [1, 5]: 0.1 to 0.5 nM; EC50 [2, 6]: 1.01 to 5 nM
11 | CC[C@@H]1C[C@H](C)CC/C=C\[C@@H]2C[C@@]2(C(=O)NS(=O)(=O)C2(C)CC2)NC(=O)[C@@H]2C[C@@H](Oc3nccc4c5c(ccc34)N(C)CCO5)CN2C(=O)[C@H]1NC(=O)OC(C)(C)C [Compound 5330, tert-butyl ((2R,6S,7R,9R,13aS,14aR,16aS,Z)-7-ethyl-9-methyl-2-((4-methyl-3,4-dihydro-2H-[1,4]oxazino[2,3-f]isoquinolin-7-yl)oxy)-14a-(((1-methylcyclopropyl)sulfonyl)carbamoyl)-5,16-dioxo-1,2,3,5,6,7,8,9,10,11,13a,14,14a,15,16,16a-hexadecahydrocyclopropa[e]pyrrolo[1,2-a][1,4]diazacyclopentadecin-6-yl)carbamate] | – | – | EC50 [1, 7]: < 5.46 nM; EC50 [2, 8]: < 5.46 nM
12 | CC[C@@H]1C[C@@H](C)CC/C=C\[C@@H]2C[C@@]2(C(=O)NS(=O)(=O)C2(C)CC2)NC(=O)[C@@H]2C[C@@H](Oc3nccc4c(OC)cccc34)CN2C(=O)[C@H]1NC(=O)OC(C)(C)C(F)(F)F [Compound 3027, 1,1,1-trifluoro-2-methylpropan-2-yl((2R,6S,7R,9S,13aS,14aR,16aS,Z)-7-ethyl-2-((5-methoxyisoquinolin-1-yl)oxy)-9-methyl-14a-(((1-methylcyclopropyl)sulfonyl)carbamoyl)-5,16-dioxo-1,2,3,5,6,7,8,9,10,11,13a,14,14a,15,16,16a-hexadecahydrocyclopropa[e]pyrrolo[1,2-a][1,4]diazacyclopentadecin-6-yl)carbamate] | 4.82 to 103 | 4.82 to 103 | –
